Measured values published in the supplement of paper PMC10307832.

Columns and labels:
Experiment in all cases: relative viability (nuclei count vs DMSO), 5 days (fraction); higher = more cells survive
[1] = compound: C/C(=N\NC(=S)N1CCC1)/C2=CC=CC=N2 + O=C(CCCCCCC(=O)Nc1ccccc1)NO [Vorinostat] (partner 1 µM)
Method in brief: (§1)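 Values are medians from duplicate plates. Each reflects relative viability, defined as the nuclei count of treated wells over that of vehicle wells. Lung cancer cell lines in 1536-well plates were pin-tool dosed one day after seeding with one drug alone or with a fixed anchor-drug dose plus five library-drug doses (not always all listed) in √10 steps, then fixed, stained and imaged at 4× after 5 days.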

[2] = compound: C/C(=N\NC(=S)N1CCC1)/C2=CC=CC=N2 + Nc1nc2[nH]cc(CCc3ccc(C(=O)N[C@@H](CCC(=O)O)C(=O)O)cc3)c2c(=O)[nH]1 [Pemetrexed] (partner 0.2 µM)
Method in brief: as §1

[3] = compound: C/C(=N\NC(=S)N1CCC1)/C2=CC=CC=N2 + Cc1nc(Nc2ncc(C(=O)Nc3c(C)cccc3Cl)s2)cc(N2CCN(CCO)CC2)n1 [Dasatinib] (partner 0.075 µM)
Method in brief: as §1

[4] = compound: C/C(=N\NC(=S)N1CCC1)/C2=CC=CC=N2 + CC(=O)c1c(C)c2cnc(Nc3ccc(N4CCNCC4)cn3)nc2n(C2CCCC2)c1=O [Palbociclib] (partner 0.5 µM)
Method in brief: as §1

Row | Cell Line | relative viability ([1]; first compound 0.05 µM) | relative viability ([1]; first compound 0.1581 µM) | relative viability ([1]; first compound 0.5 µM) | relative viability ([1]; first compound 1.581 µM) | relative viability ([1]; first compound 5 µM) | relative viability ([2]; first compound 0.05 µM) | relative viability ([2]; first compound 0.1581 µM) | relative viability ([2]; first compound 0.5 µM) | relative viability ([2]; first compound 1.581 µM) | relative viability ([2]; first compound 5 µM) | relative viability ([3]; first compound 0.05 µM) | relative viability ([3]; first compound 0.1581 µM) | relative viability ([3]; first compound 0.5 µM) | relative viability ([3]; first compound 1.581 µM) | relative viability ([3]; first compound 5 µM) | relative viability ([4]; first compound 0.05 µM) | relative viability ([4]; first compound 0.1581 µM) | relative viability ([4]; first compound 0.5 µM) | relative viability ([4]; first compound 1.581 µM) | relative viability ([4]; first compound 5 µM)
1 | NCI-H441 | 0.16 | 0.19 | 0.153 | 0.111 | 0.127 | 0.16 | 0.162 | 0.129 | 0.154 | 0.118 | 0.143 | 0.15 | 0.159 | 0.108 | 0.156 | 0.13 | 0.112 | 0.124 | 0.0967 | 0.105
2 | NCI-H460 | 0.0355 | 0.029 | 0.0302 | 0.03 | 0.0178 | 0.0583 | 0.0469 | 0.0644 | 0.0399 | 0.014 | 0.0259 | 0.0347 | 0.0269 | 0.0294 | 0.0151 | 0.018 | 0.0146 | 0.0188 | 0.0169 | 0.0139
3 | NCI-H520 | 0.177 | 0.156 | 0.163 | 0.182 | 0.159 | 0.128 | 0.16 | 0.145 | 0.122 | 0.146 | 0.175 | 0.117 | 0.162 | 0.178 | 0.166 | 0.119 | 0.139 | 0.121 | 0.114 | 0.151
4 | NCI-H522 | 0.272 | 0.322 | 0.265 | 0.369 | 0.411 | 0.243 | 0.299 | 0.284 | 0.352 | 0.364 |  | 0.332 | 0.494 |  | 0.416 | 0.432 | 0.376 | 0.284 | 0.381 | 0.412
5 | NCI-H647 | 0.115 | 0.0948 | 0.106 | 0.0935 | 0.102 | 0.136 | 0.111 | 0.114 | 0.0953 | 0.0773 | 0.0543 | 0.0651 | 0.0453 | 0.051 | 0.0532 | 0.0551 | 0.0636 | 0.0877 | 0.0726 | 0.0666
6 | NCI-H650 | 0.152 | 0.163 | 0.152 | 0.177 | 0.139 | 0.179 | 0.245 | 0.201 | 0.166 | 0.131 | 0.19 | 0.212 | 0.191 | 0.216 | 0.177 | 0.143 | 0.197 | 0.146 | 0.144 | 0.128
7 | NCI-H661 | 0.324 | 0.297 | 0.289 | 0.283 | 0.259 | 0.286 | 0.278 | 0.244 | 0.229 | 0.223 | 0.196 | 0.223 | 0.197 | 0.2 | 0.212 | 0.284 | 0.252 | 0.251 | 0.231 | 0.223
8 | NCI-H838 | 0.286 | 0.266 | 0.249 | 0.17 | 0.178 | 0.223 | 0.186 | 0.185 | 0.19 | 0.186 | 0.203 | 0.198 | 0.223 | 0.201 | 0.187 | 0.161 | 0.165 | 0.158 | 0.129 | 0.13
9 | NCI-H1355 | 0.165 | 0.174 | 0.148 | 0.171 | 0.144 | 0.195 | 0.18 | 0.177 | 0.189 | 0.152 | 0.198 | 0.194 | 0.187 | 0.168 | 0.15 | 0.171 | 0.167 | 0.165 | 0.148 | 0.154
10 | NCI-H1395 | 0.302 | 0.405 | 0.31 | 0.312 | 0.339 | 0.313 | 0.402 | 0.322 | 0.32 | 0.348 | 0.27 | 0.362 | 0.315 | 0.29 | 0.326 | 0.33 | 0.333 | 0.329 | 0.366 | 0.381
11 | NCI-H1437 | 0.32 | 0.334 | 0.251 | 0.218 | 0.188 | 0.174 | 0.169 | 0.193 | 0.171 | 0.126 | 0.0967 | 0.128 | 0.0689 | 0.0833 | 0.122 | 0.183 | 0.175 | 0.163 | 0.129 | 0.111
12 | NCI-H1650 | 0.159 | 0.171 | 0.143 | 0.143 | 0.178 | 0.308 | 0.186 | 0.202 | 0.221 | 0.203 | 0.154 | 0.172 | 0.167 | 0.157 | 0.183 | 0.17 | 0.119 | 0.138 | 0.138 | 0.163
13 | NCI-H1651 | 0.116 | 0.116 | 0.109 | 0.0595 | 0.0665 | 0.137 | 0.111 | 0.0991 | 0.0716 | 0.0806 | 0.195 | 0.174 | 0.126 | 0.0657 | 0.0655 | 0.159 | 0.134 | 0.129 | 0.0856 | 0.0851
14 | NCI-H1666 | 0.575 | 0.579 | 0.538 | 0.501 | 0.494 | 0.532 | 0.638 | 0.54 | 0.442 | 0.473 | 0.335 | 0.307 | 0.301 | 0.28 | 0.296 | 0.617 | 0.608 | 0.564 | 0.495 | 0.509
15 | NCI-H1734 | 0.169 | 0.174 | 0.145 | 0.12 | 0.124 | 0.17 | 0.166 | 0.188 | 0.152 | 0.135 | 0.152 | 0.12 | 0.148 | 0.112 | 0.089 | 0.14 | 0.132 | 0.169 | 0.131 | 0.129
16 | NCI-H1755 | 0.294 | 0.226 | 0.223 | 0.233 | 0.225 | 0.394 | 0.302 | 0.273 | 0.31 | 0.292 | 0.16 | 0.202 | 0.157 | 0.198 | 0.247 | 0.407 | 0.452 | 0.33 | 0.294 | 0.303
17 | NCI-H1793 | 0.189 | 0.139 | 0.127 | 0.124 | 0.133 | 0.158 | 0.162 | 0.151 | 0.112 | 0.136 | 0.113 | 0.145 | 0.151 | 0.121 | 0.145 | 0.191 | 0.162 | 0.146 | 0.155 | 0.174
